From paper PMC9497135, “Structure-Based Study to Overcome Cross-Reactivity of Novel Androgen Receptor Inhibitors” (Cells, 2022)

Experiments:
[1] = biological target: T1, AR (LNCaP cells, which carry the T878A AR mutation) (Homo sapiens, UniProt P10275, T878A); assay: eGFP cellular AR transcription assay in LNCaP cells (LN-ARR2PB-eGFP); format: cell-based; settings: LNCaP, with R1881, high concentrations
T1 construct: LNCaP cells, which carry the T878A AR mutation; endogenous in cells; host or cells: LNCaP (LN-ARR2PB-eGFP)
T1 sequence (P10275 1-920 T878A): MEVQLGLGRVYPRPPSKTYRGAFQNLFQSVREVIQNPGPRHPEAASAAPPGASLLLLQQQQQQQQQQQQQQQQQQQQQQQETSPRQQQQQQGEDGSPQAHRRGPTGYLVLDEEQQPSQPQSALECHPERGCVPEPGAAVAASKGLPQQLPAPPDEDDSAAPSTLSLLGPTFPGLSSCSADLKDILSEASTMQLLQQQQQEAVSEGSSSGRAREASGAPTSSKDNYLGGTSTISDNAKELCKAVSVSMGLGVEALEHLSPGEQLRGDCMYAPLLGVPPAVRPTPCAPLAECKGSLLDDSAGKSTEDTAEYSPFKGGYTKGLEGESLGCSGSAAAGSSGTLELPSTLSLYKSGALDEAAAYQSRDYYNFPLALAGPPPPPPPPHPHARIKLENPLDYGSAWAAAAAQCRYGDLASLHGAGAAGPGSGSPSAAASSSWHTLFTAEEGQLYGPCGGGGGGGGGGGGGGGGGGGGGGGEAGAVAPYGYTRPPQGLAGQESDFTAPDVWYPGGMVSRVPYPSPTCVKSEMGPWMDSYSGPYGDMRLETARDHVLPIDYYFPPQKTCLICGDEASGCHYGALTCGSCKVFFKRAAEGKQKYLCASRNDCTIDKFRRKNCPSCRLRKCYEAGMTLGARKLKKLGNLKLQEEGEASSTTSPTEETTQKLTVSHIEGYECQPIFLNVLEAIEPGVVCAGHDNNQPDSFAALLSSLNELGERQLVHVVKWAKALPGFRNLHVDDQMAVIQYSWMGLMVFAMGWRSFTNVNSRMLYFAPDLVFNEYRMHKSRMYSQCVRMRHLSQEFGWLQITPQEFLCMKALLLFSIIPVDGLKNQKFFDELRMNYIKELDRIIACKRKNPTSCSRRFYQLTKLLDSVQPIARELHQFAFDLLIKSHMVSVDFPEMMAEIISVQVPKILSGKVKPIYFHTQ
Experimental: AR transcriptional activity was assayed as previously described. Briefly, LNCaP human prostate cancer cells (LN-ARR2PB-eGFP), stably transfected with eGFP reporter driven by an androgen responsive probasin-derived promoter (ARR2PB), were grown in phenol red free RPMI 1640 media supplemented with 5% charcoal stripped serum (CSS). After 5 days, the cells were plated into a 96-well plate (35,000 cells/well) with 0.1 nM of the synthetic androgen R1881 and increasing concentrations (0−100 μM) of test compounds. Fluorescence (excitation 485 nm, emission 535 nm) was measured after 3 days of incubation with the compounds.

Androgen Receptor ABS = biological target: T2, Androgen Receptor ABS (Rattus norvegicus, UniProt P15207); assay: Androgen (DHT) displacement, Polar Screen Androgen Receptor Competitor Green Assay Kit; format: binding; settings: fluorescence polarization kit
T2 construct: purchased
T2 sequence (P15207 647-902 limits assumed): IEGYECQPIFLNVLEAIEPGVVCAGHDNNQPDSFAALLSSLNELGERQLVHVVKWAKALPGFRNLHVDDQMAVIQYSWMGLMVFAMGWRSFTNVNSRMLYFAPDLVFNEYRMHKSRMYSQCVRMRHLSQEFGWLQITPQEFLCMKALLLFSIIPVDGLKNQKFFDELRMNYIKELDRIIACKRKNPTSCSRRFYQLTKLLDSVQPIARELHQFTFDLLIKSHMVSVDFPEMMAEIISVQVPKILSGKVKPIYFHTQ
Experimental: Androgen displacement was assessed with the Polar Screen Androgen Receptor Competitor Green Assay Kit as per the instructions of the manufacturer.

[2] = biological target: T1, AR (LNCaP cells, which carry the T878A AR mutation); assay: eGFP cellular AR transcription assay in LNCaP cells (LN-ARR2PB-eGFP); format: cell-based; settings: eGFP-expressing LNCaP cells, no R1881

COc1c(F)cccc1-c1csc(N2CCOCC2)n1 [VPC14368, 4-(4-(3-fluoro-2-methoxyphenyl)thiazol-2-yl)morpholine]
Partial agonistic effect in eGFP assay [1]: partial agonistic effect
Androgen Displacement (Yes/No) (Androgen Receptor ABS): Yes
AR transcriptional activity in the absence of R1881 [2]: enhanced the AR transcriptional activity
